Results from the METLIN SMRT retention time set (Domingo-Almenara et al. 2019).

Test: gradient 5% acetonitrile 3 min, to 50% in 2 min, to 85% in 15 min, held 3 min, 100 µL/min
Conditions: column: Zorbax Extend-C18 2.1 x 50 mm; eluents: water / acetonitrile, 0.1% formic acid
How it was run: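 Retention time was recorded from adduct peaks, which were picked computationally and each inspected manually. Pure standards ran in mixtures of ~100 molecules on HPLC coupled to a quadrupole time-of-flight mass spectrometer, in positive and negative ionization mode, through a Zorbax Extend-C18 column (2.1 × 50 mm, 1.8 μm) at 100 μL/min. Eluents were water and acetonitrile, each with 0.1% formic acid.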

Row | RP-LC retention time | SMILES
1 | 586 s | Cc1ccc(F)cc1S(=O)(=O)N1CCN(c2nc3ccncc3n(C)c2=O)CC1
2 | 803 s | Cc1cc2c(c(=O)n(-c3ccccc3)c(=O)n2CC(=O)Nc2ccccc2F)n1C
3 | 1000 s | CCCCn1cc(S(=O)(=O)NCc2cccc(C)c2)c2cccnc21
4 | 647 s | Cc1ccn2cc(-c3ccc(NC(=O)c4cccc(F)c4)cc3)nc2n1
5 | 610 s | Cc1ccc2nc3c(c(C(=O)NC(C)C)c2c1)CCC3
6 | 789 s | COCCCNC(=O)C1c2ccccc2CC(=O)N1Cc1ccccc1 (stereo not drawn)
7 | 562 s | CN(C)C[C@@H]1CN(Cc2ccccc2)C[C@H]1NS(=O)(=O)c1ccc(C#N)cc1
8 | 897 s | CCOc1ccc2nc(C(=O)NC(CC)c3ccc(OC)cc3)cn2n1 (stereo not drawn)
9 | 1050 s | COC(=O)c1ccc2c(=O)n(-c3ccc(OC)cc3)c(N3CCSC3)nc2c1
10 | 1070 s | O=c1n(Cc2nc(-c3ccc(OC(F)(F)F)cc3)no2)nc2ccc(-c3ccccc3)nn12
11 | 774 s | O=C(CN1C(=O)CCS(=O)(=O)c2ccccc21)Nc1ccc(Br)cc1
12 | 1030 s | CC1CCN(c2cc(-n3cnc(C(=O)NC4CCCCC4)c3)ncn2)CC1
13 | 735 s | CCOc1ccc(NC(=O)Cn2c(-c3cnccn3)nc(C)c(C)c2=O)cc1
14 | 511 s | O=c1n(CC2CC2)nc2n1CCN(Cc1ccncc1)C2
15 | 838 s | Cc1nc(CC(=O)Nc2ccc(Cl)cc2F)cs1
16 | 1140 s | Fc1ccccc1-c1noc(-c2nc(-c3ccccc3F)no2)n1
17 | 1180 s | CC(C)c1csc(-c2csc(S(=O)(=O)NC3CCCCC3)c2)n1
18 | 590 s | Cc1ccc(Nc2cc(C)nc(N3CCN(C(=O)c4ccco4)CC3)n2)cc1
19 | 849 s | O=C(Cc1ccc([N+](=O)[O-])cc1)NCc1ccc2[nH]c3c(c2c1)CCCC3
20 | 614 s | COc1cccc(C(=O)N2CCN=C2N2CCCC2)c1OC
21 | 745 s | O=C(Nc1ccccn1)C1(c2cccs2)CCOCC1
22 | 1000 s | COc1ccc(NC(=O)N2CCC3(CC2)Nc2ccccc2-n2cccc23)c(OC)c1
23 | 655 s | CC(=O)N1CCC(C(=O)NC2CCCN(c3cc(-c4ccc(Cl)cc4)[nH]n3)C2)CC1 (stereo not drawn)

Row | RP-LC retention time | SMILES
24 | 870 s | CCC(C)NC(=O)Cn1cccc(-c2nc(-c3ccc(Br)cc3)no2)c1=O (stereo not drawn)
25 | 651 s | O=C(c1cccnc1)N1CCC(Oc2cc(N3CCCCC3)ncn2)C1 (stereo not drawn)
26 | 890 s | CC(C)CC(=O)Nc1ccc(OCc2cc(C(=O)NC3CCCC3)no2)cc1
27 | 611 s | Cn1nnnc1SCC(=O)NCCn1nc(-c2cccs2)ccc1=O
28 | 1160 s | CCOC(=O)c1noc2nc(C)nc(Nc3ccc(CC)cc3)c12
29 | 821 s | Cc1ccc(C(=O)N2CCc3cc(CNC(=O)c4ccnn4C)ccc32)cc1
30 | 846 s | COc1ccc(-c2cn3ccn(-c4ccc5c(c4)CCC5)c(=O)c3n2)cc1OC
31 | 813 s | CN(CC1(C)CCOCC1)C(=O)c1c(F)cccc1Cl
32 | 677 s | CC(C)(C)NC(=O)N1CC(c2nc(-c3cccnc3)no2)C2(CCOCC2)C1 (stereo not drawn)
33 | 675 s | CCN1CCN(S(=O)(=O)c2cc(-c3nc(C)cs3)n(CC(=O)N3CCCCC3)c2)CC1
34 | 577 s | COC(=O)N1CCN(Cc2cccc(NC(=O)Nc3ccc(C)nc3)c2F)CC1
35 | 743 s | CCc1nnc(-c2cccn2CC(=O)NCc2ccc3c(c2)OCO3)o1
36 | 1090 s | CCN(CC)c1nc2cc(C(=O)NCCC(C)C)ccc2c(=O)n1-c1ccccc1
37 | 615 s | Cc1nnc(-c2coc(S(=O)(=O)N3CCC(N4CCCCC4)CC3)c2)o1
38 | 1090 s | CCCn1cc(C(=O)Nc2cc(OC)ccc2OC)c(=O)c2ccc(C)nc21
39 | 655 s | CCCCN1CCc2nc(Nc3cc(OC)ccc3OC)ncc2C1
40 | 896 s | COC[C@@H]1OCCN(S(=O)(=O)c2cc(OC)ccc2OC)[C@H]1c1ccccc1
41 | 645 s | Cc1ccnc(NC(=O)C2CCN(S(=O)(=O)c3ccc4c(c3)sc(=O)n4C)CC2)c1
42 | 787 s | Cc1cc(C)n(-c2ccccc2Cl)c(=O)c1C(=O)O
43 | 717 s | O=C(Nc1ccc2c(c1)CN(C(=O)Nc1ccc3c(c1)OCCO3)CCO2)C1CC1
44 | 924 s | CCc1nc(-c2ccc(-c3noc(CNC(=O)c4ccco4)n3)cc2)cs1
45 | 892 s | Cc1ccc(-n2c(=O)n(C)c(=O)c3cc(C(=O)Nc4ccc5c(c4)OCCO5)cnc32)cc1
46 | 566 s | c1ccc(-c2nnc(CN3CCCCC3)o2)cc1

Row | RP-LC retention time | SMILES
47 | 602 s | CCN(CC)C(=O)Cn1ccc(NC(C)=O)nc1=O
48 | 648 s | O=C(CSc1nnc(NC(=O)c2ccc(Br)o2)s1)NCC1CCCO1 (stereo not drawn)
49 | 646 s | CCC(C)NC(=O)N1CCN(Cc2nc3cccnc3n2-c2cccc(C)c2)CC1 (stereo not drawn)
50 | 731 s | O=C(NCCc1ccccc1)N1CCC(c2noc(-c3ccncc3)n2)C1 (stereo not drawn)
51 | 829 s | Cn1cc(-c2cc3n(n2)CCC(=O)N3CC(=O)Nc2cccc(F)c2)c2ccccc21
52 | 740 s | Cc1ccc(NC(=O)Nc2ccc(NC(=O)N3CCC(C(=O)NCC4CC4)CC3)cc2)cc1
53 | 1030 s | Cn1c(C(=O)N(CCc2ccccc2)Cc2ccccc2)cc2c(=O)n3ccccc3nc21
54 | 740 s | COc1ccc(-n2nc(N3CCCC(C(=O)NCc4ccco4)C3)ccc2=O)cc1 (stereo not drawn)
55 | 529 s | CN(C)[C@@H]1CN(C(=O)CCc2nc3ccc(Cl)cc3[nH]2)C[C@H]1CO
56 | 701 s | O=C1CCN(S(=O)(=O)c2ccccc2)CCCN(C(=O)Nc2ccc3c(c2)OCCO3)CCN1
57 | 712 s | CC(C)(C(N)=O)c1ccccc1
58 | 1080 s | O=S(=O)(c1ccc(-c2csc(Nc3ccc(Cl)cc3)n2)cc1)N1CCOCC1
59 | 740 s | Cc1ccccc1CNC(=O)C1CCN(Cc2cn(C)c3ccc(Cl)cc23)CC1
60 | 702 s | CCn1c(=O)n(CC)c2cc(NC3=C(C(N)=O)S(=O)(=O)c4ccccc43)ccc21
61 | 548 s | CN1C(=O)c2cccn2CC1CNC(=O)c1cc(CN2CCOCC2)on1 (stereo not drawn)
62 | 572 s | CCS(=O)(=O)NCCc1csc(C)n1
63 | 674 s | CCCN(Cc1ccc(Cl)cc1)Cc1cc(=O)n2cc(C)ccc2n1
64 | 921 s | Brc1ccc(Nc2c(-c3ccc4c(c3)OCO4)nc3cnccn23)cc1
65 | 608 s | COCCNc1nc(-c2ccc(C)cc2)nnc1C
66 | 879 s | CCCN1C(=O)C2CCC(=O)N2c2ccc(C(=O)Nc3cccc(SC)c3)cc21 (stereo not drawn)
67 | 591 s | CC(C)c1nnc(C2CN(Cc3ccc(F)c(Cl)c3)CC23CCN(C)CC3)o1 (stereo not drawn)
68 | 964 s | Fc1ccc(N2CCN(Cc3nc(-c4ccccc4)no3)CC2)cc1
